# What was measured:
# HeLa cells = experiment: Cell imaging under fluorescent microscope, HeLa cells; assay type: cell-based, human; details: 200 nM
# Protocol: Cell culture: HeLa cells were cultured in the MEM containing 10% FBS and 1% antibiotics (100 units/mL penicillin and 100 µg/mL streptomycin) in a 5% CO2 humidity incubator at 37° C. COS-7, MDA-MB-231, MCF-7, and MDCK-II cells were culture in the DMEM containing 10% FBS and antibiotics (100 units/mL penicillin and 100 µg/mL streptomycin) in a 5% CO2 humidity incubator at 37° C.
# Cell imaging: two different kind of cells were grown overnight on a 35 mm petri dish with a cover slip. The live cells were incubated with 200 nM of TPE-IQ-2O for 1, 5, 10, and 20 mins. In a typical experiment, 2 μL of a 10 mM stock solution of TPE-IQ-2O in DMSO was diluted to 2 mL with cell culture medium, followed by further dilution to desired concentration. The cells were imaged under a fluorescent microscope (BX41 Microscope) using the same excitation and emission filters: excitation filter=400-440 nm, dichroic mirror=455 nm, and emission filter=465 nm long pass.
# Two different kinds of cells were grown overnight on a 35 mm petri dish with a cover slip. The live cells were incubated with 200 nM of TPE-IQ-20 for 20, 10, 5, and 1 mins. The Hela cells were stained by TPE-IQ-2O; the COS-7 cells were stained by TPE-IQ-2O; the Hela cells and COS-7 cells were co-cultured and stained together by TPE-IQ-2O. Condition: 200 nM (Filter: both close; Channel 5; EX: 400-440 nm; Exposure time: bright field: 1000 ms Fluorescence: 1000 ms.
# Two different kinds of cells were grown overnight on a 35 mm petri dish with a cover slip. The live cells were incubated with 200 nM of TPE-IQ-2O for 10 mins. The Hela cells were stained by TPE-IQ-2O; the MDCKII cells were stained by TPE-IQ-2O; the MDA-MB-231 cells and COS-7 cells were co-cultured and stained together by TPE-IQ-2O. Condition: 200 nM 10 mins (Filter: both close; Channel 5; EX: 400-440 nm; Exposure time: bright field: 1000 ms Fluorescence: 1000 ms.
# (§1) HepG2 cells (human hepatocarcinoma cell line), PC-9 cells (human lung adenocarcinoma cell line), Hela cells (human cervical carcinoma cell line), and LX2 cells (normal cell, human hepatic stellate cell line) were stained with 200 nM DPA-IQ for 10 min. Images were taken under the same equipment settings. Scale bar: 30 μm. Excitation wavelength: 400-440 nm.
# COS-7 cells = experiment: Cell imaging under fluorescent microscope, COS-7 normal cells; assay type: cell-based, simian; details: COS-7 stained alone, 200 nM, 1-20 min
# Protocol: Cell culture: HeLa cells were cultured in the MEM containing 10% FBS and 1% antibiotics (100 units/mL penicillin and 100 µg/mL streptomycin) in a 5% CO2 humidity incubator at 37° C. COS-7, MDA-MB-231, MCF-7, and MDCK-II cells were culture in the DMEM containing 10% FBS and antibiotics (100 units/mL penicillin and 100 µg/mL streptomycin) in a 5% CO2 humidity incubator at 37° C. Cell imaging: two different kind of cells were grown overnight on a 35 mm petri dish with a cover slip. The live cells were incubated with 200 nM of TPE-IQ-2O for 1, 5, 10, and 20 mins. […] Condition: 200 nM (Filter: both close; Channel 5; EX: 400-440 nm; Exposure time: bright field: 1000 ms Fluorescence: 1000 ms. Two different kinds of cells were grown overnight on a 35 mm petri dish with a cover slip. The live cells were incubated with 200 nM of TPE-IQ-2O for 20, 10, and 5 mins. The MCF-7 cells were stained by TPE-IQ-2O; the COS-7 cells were stained by TPE-IQ-2O; the MCF-7 cells and COS-7 cells were co-cultured and stained together by TPE-IQ-2O. Condition: 200 nM (Filter: both close; Channel 5; EX: 400-440 nm; Exposure time: bright field: 1000 ms Fluorescence: 1000 ms. Two different kinds of cells were grown overnight on a 35 mm petri dish with a cover slip. […] Condition: 200 nM (Filter: both close; Channel 5; EX: 400-440 nm; Exposure time: bright field: 1000 ms Fluorescence: 1000 ms.
# HepG2 cells = experiment: Cell imaging, HepG2 cells; assay type: cell-based, human; details: HepG2, 200 nM, 20 and 10 mins
# Protocol: The PC-9, HepG2, and HCC827 cells were grown overnight on a 35 mm petri dish with a cover slip. The live cells were incubated with 200 nM of TPE-IQ-2O for 20 and 10 mins. In all the experiments, the cancer cells are fluorescent in solely staining.
# as §1
# mitochondria = experiment: Co-staining with commercial organelle trackers in HeLa cells (mitochondria staining); assay type: cell-based, human; details: HeLa, 200 nM with Mito-tracker red/Lyso-tracker red/DAPI, 20 mins
# Protocol: The HeLa cells were grown overnight on a 35 mm petri dish with a cover slip. Then the HeLa cells were stained with 200 nM TPE-IQ-2O and Mito-tracker red (50 nM)/Lyso-tracker red (50 nM)/DAPI (500 nM) for 20 mins.
# The DMSO solution of DPA-IQ was almost non-emissive while the aggregation state powder of this material emits strong green luminescence upon the UV excitation.
# The commercially available MitoTracker Red FM is co-stained as a control together with Naph-IQ.
# ROS = ROS generation under white light with H2DCF-DA indicator; details: white light irradiation; dye 10 mM, H2DCF-DA 5 mM, ex 488 nm
# Protocol: Fluorescence change of TPE-IQ-2O, H2DCF-DA (ROS indicator) and the mixture with different irradiation time of white light. […] Dye (TPE-IQ-2O): 10 mM; H2DCF-DA: 5 mM. Excitation wavelength: 488 nm.
smiles,measurement,setting,value
"CCC[n+]1cc2ccc(C(=C(c3ccc(OC)cc3)c3ccc(OC)cc3)c3ccccc3)cc2c(-c2ccccc2)c1-c1ccccc1 [TPE-IQ-2O, 6-(2,2-bis(4-methoxyphenyl)-1-phenylvinyl)-3,4-diphenyl-2-propylisoquinolin-2-ium]",Fluorescence in co-culture,HeLa cells; HeLa and COS-7 co-cultured and stained together,fluorescence only from the Hela cancer cell
same,Fluorescence in co-culture,"HeLa cells; HeLa and MDCK-II grown in the same environment, 10 mins",fluorescence only from the Hela cancer cell
same,Fluorescence of stained cells,"HeLa cells; HeLa stained alone, 1-20 min",fluorescent
same,Fluorescence of stained cells,COS-7 cells,not stained
same,Fluorescence of stained cells,HepG2 cells,fluorescent
same,Organelle selectivity,mitochondria,can selectively target the mitochondria
same,ROS generation (H2DCF-DA fluorescence),ROS,continuous ROS generation

# From patent US10935552B2, “Aie luminogens for visualization and treatment of cancer” (THE HONG KONG UNIVERSITY OF SCIENCE AND TECHNOLOGY, priority 2015, dated 2021)
